Common to all, as to format: cell-based, human
One assay has as its system MG-63 cells. Put plainly: Acridine orange staining of acidic vesicular organelles (AVOs). To be noted: control MG-63 cells; cisplatin 20 μM, 24 hr. The procedure:
(§1) FIG. 3. GFRα1-induced autophagy enhances the chemoresistance of osteosarcoma cells induced by cisplatin. (a) Control and GFRα1-deficient MG-63 cells were transiently transfected with a mRFP-GFP tandem fluorescent-tagged LC3 (mRFP-GFP-LC3) vector and then treated with cisplatin (20μM) for 24 hr. Left, representative images of RFP-LC3 and GFP-LC3 puncta. Scale bar, 20 μm. Right, quantitative analysis of the number of yellow puncta and the number of RFP-LC3 puncta in the combined images. The values are represented as a mean±s.d.m. (n=3). ** denotes p<0.05 by t-test. (b) Control and GFRα1-deficient MG-63 cells were treated with cisplatin (20 μM) for 24 hr and then stained with acridine orange. […] Bottom, quantitative analysis of the number of AVOs. […] (c) Control and GFRα1-deficient MG-63 cells were treated with cisplatin (20 μM) for 24 hr and then analyzed by TEM. Top, representative images of autophagic vacuoles (yellow arrows) detected after cisplatin treatment in control MG-63 cells. […] Bottom, quantitative analysis of the number of autophagic vacuoles. […] (e) Quantitative analysis of the number of yellow puncta and the number of RFP-LC3 puncta in control and GFRα1-overexpressing MG-63 cells. […] Bottom, quantitative analysis of the number of AVOs. […] (h) Control and GFRα1-overexpressing MG-63 cells were treated with cisplatin (20 μM) for 24 hr and then analyzed by TEM. […]

The subject of assay [1] is LC3-II in GFRα1-overexpressing MG-63 cells. As to the kind of experiment: Immunoblot of LC3-II in GFRα1-overexpressing cells. To be noted: 3-MA (10 μM) or Baf (100 nM). The procedure: as §1
For orientation: In western blotting, separated proteins are transferred to a membrane and probed.

Assay [2] relates to GFRα1-overexpressing MG-63 clone #4. Put plainly: Colony-forming assay in the presence of cisplatin. To be noted: cisplatin 20 μM 10 days; 3-MA (10 μM), Baf (100 nM), CQ (30 μg/ml). The source says: FIG. 3. […] Scale bar, 20 μm. […] Scale bar, 20 μm. […] Scale bar, 20 μm.

For `N.N.[Cl][Pt][Cl]` [cisplatin, Cis-Diamineplatinum(II) dichloride], the AVO-positive cells result with MG-63 cells was “significantly increased”.

With `Cn1cnc(N)c2ncnc1-2` [3-MA, 3-methyladenine], the “level of LC3-II expression” value in assay [1] is “reduced”. Further, the number of colonies result in assay [2] was “effectively reduced”.

For the origin of these results see patent publication US20180171411A1, “GFRalpha1 AS A BIOMARKER FOR CISPLATIN-INDUCED CHEMORESISTANCE AND METASTASIS” (THE BOARD OF REGENTS OF THE UNIVERSITY OF TEXAS SYSTEM, priority 2015, published 2018).
